In patent publication US12186740B2, “Kits comprising containers with at least one solid catalytically active compound, and their uses in solid state reaction” (RD&C Research, Development & Consulting GmbH, priority 2018, dated 2025):
Where two headings read alike, the source gives them in different places.

Key:
[1] = Proof of concept: solid phase oxidation in a ball mill with a solid catalyst; format: physicochemical
Description: The first experiment was focused on a simple, well characterized API and other molecules with low structural complexity but with representative functional groups. They were systematically combined with a selection of potentially suitable catalysts. The solid phase reactions were initiated by ball milling for energy transfer in a controlled environment. In a first experimental set-up the oxidation in solid phase systems was analysed including a systematic evaluation of various catalysts, carrier matrices and reaction conditions.
The following analytical methods were implemented. Two solid phase oxidation reactions were prepared. The catalyst used was KMnO4 on silica and the active reaction container was a ball mill.

[2] = 90 min, no additives
Description: As documented in literature clopidogrel bisulphate exists in one amorphous and two polymorphic forms, polymorph II was used for the experiments described. To elucidate the stability and detect changes of the polymorphic form after energy input a simple experimental set-up with the API and no further additives was executed and the polymorphic form was analysed by WAXS (wide-angel X-ray scattering) and DSC (differential scanning calorimetry).
These experiments could be used to evaluate the stability of various polymorphic forms in general, but could also indicate the stability/instability during industrial processing and manufacturing.

[3] = after 60 minutes process time
[4] = acidic stressor at 40° C./75% relative humidity for 3 months; cited from earlier work
[5] = KMnO4 on aluminium oxide, dry; process times 60 to 300 minutes

oxidation product(s) formed ([1]; KMnO4 on silica, ball mill) | polymorphic form after milling (DSC profile) ([2]; milling 10 Hz) | quantity of degradation, solid phase conditions vs conventional forced degradation conditions ([3]; based on AUCs in the HPLC method) | acidic degradation product (RT 15 min) ([3]; solid phase set-up, acidic solid phase catalyst) | time-dependency of the degradation reaction [5] | SMILES | oxidation product(s) formed ([1]; on aluminium oxide) | polymorphic form after milling (DSC profile) ([2]; milling 25 Hz) | acidic degradation product (RT 15 min) [4] | follow-up or second line degradation products [5] | oxidative degradation products formed [5]
diphenylsulfoxide and diphenylsulfone | – | – | – | – | c1ccc(Sc2ccccc2)cc1 [diphenylsulfide] | solely the higher oxidation state product diphenyl sulfone, but no diphenylsulfoxide | – | – | – | –
– | minor changes and higher stability | comparable amount | could also be detected | clear time-dependency | COC(=O)[C@H](c1ccccc1Cl)N1CCc2sccc2C1 [clopidogrel bisulphate] | – | change of the polymorphic form II to the amorphous state | detected | no follow-up or second line degradation products occurred | two oxidative solid phase degradation products
